The source of these data is patent US20110118238A1, “2-ANILINOPURIN-8-ONES AS INHIBITORS OF TTK/MPS1 FOR THE TREATMENT OF PROLIFERATIVE DISORDERS” (ASTRAZENECA AB, priority 2007, published 2011).

Experiment [1] has as its system human colon tumour cell line HT29. In words: Spindle Checkpoint Abrogation Assay (phosphohistone H3 serine 10). The following applies: HT-29, HT29 cells, paclitaxol 7.8 nM, compound 5 h, histone H3 serine 10 positive cells, read-out: SCAA: Spindle checkpoint abrogation assay activity. The format is cell-based. From the text:
Chromosome condensation in mitosis is accompanied by phosphorylation of histone H3 on serine 10. Dephosphorylation begins in anaphase and ends at early telophase, thus histone H3 serine 10 phosphorylation acts as an excellent mitotic marker. Paclitaxol is a microtubule stabilising drug which perturbs microtubule dynamics, invokes the spindle checkpoint and arrests cells in mitosis. These cells are positive for histone H3 serine 10 phosphorylation. Inhibition of the spindle checkpoint overrides the mitotic block in the presence of paclitaxol and the histone H3 serine 10 endpoint is used as a marker to determine the ability of compounds of the present invention to exit mitotic arrest prematurely.
Cells of the human colon tumour cell line HT29 were seeded into 96 well black plates (Costar, Catalogue No 3904) in phenol red free Dulbecco's Modified Eagles Medium (DMEM) supplemented with 10% (v/v) FCS and 1% (v/v) L-Glutamine and incubated overnight at 37° C. Paclitaxol was added to the cells at a concentration of 7.8 nM and the cells incubated overnight prior to compound dosing. Test compounds were solubilised in DMSO, diluted to give a range of final assay concentrations, added to cells and incubated for 5 h at 37° C. […] The raw assay data were analysed by non-linear regression analysis and used to determine an IC50 value for each compound.

The target of experiment [2] is T1, N-terminal GST tagged full length human TTK kinase (Homo sapiens, UniProt P33981).
T1 construct: N-terminal GST tagged full length human TTK kinase; GST (N); made in house; host or cells: insect cells
T1 sequence (P33981 1-857): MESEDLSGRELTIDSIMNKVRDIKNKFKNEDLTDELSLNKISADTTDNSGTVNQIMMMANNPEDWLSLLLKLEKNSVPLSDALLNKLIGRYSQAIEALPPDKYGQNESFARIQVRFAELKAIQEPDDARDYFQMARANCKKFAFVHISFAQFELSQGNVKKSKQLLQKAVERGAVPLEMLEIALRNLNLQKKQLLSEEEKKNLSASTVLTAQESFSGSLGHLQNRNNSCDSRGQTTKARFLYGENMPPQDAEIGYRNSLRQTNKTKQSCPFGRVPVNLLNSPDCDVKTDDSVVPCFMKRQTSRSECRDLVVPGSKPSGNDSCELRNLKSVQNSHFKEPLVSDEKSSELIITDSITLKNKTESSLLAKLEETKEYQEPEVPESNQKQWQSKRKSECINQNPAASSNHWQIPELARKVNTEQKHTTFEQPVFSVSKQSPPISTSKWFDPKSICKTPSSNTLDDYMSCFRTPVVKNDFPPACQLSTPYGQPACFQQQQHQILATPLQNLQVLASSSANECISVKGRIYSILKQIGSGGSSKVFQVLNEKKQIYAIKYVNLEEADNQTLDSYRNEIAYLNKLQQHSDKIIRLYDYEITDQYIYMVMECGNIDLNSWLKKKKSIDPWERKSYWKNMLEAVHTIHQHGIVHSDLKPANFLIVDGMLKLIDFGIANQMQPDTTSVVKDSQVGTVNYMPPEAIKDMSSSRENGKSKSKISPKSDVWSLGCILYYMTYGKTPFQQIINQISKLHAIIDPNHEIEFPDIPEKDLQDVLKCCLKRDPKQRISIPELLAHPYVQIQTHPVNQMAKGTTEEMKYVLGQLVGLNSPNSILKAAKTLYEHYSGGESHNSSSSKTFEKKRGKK
The experiment can be described thus: In Vitro TTK Kinase Assay 2 (Caliper LabChip LC3000). The conditions noted are these: recombinant TTK, 12 μM ATP, read-out: EAA2: Enzyme Assay Activity (In Vitro TTK kinase assay 2). It counts as biochemical. Here is the method:
Each reaction was stopped by the addition of EDTA to a concentration of 40 mM in a solution which also comprised 0.1% coating reagent (Caliper LS), 100 mM HEPES pH 7.5, 0.015% v/v Brij™-35 and 5% DMSO. The stopped enzyme reactions were sipped through capillaries onto a Caliper chip where the peptide substrate and phosphorylated product were separated and detected via laser-induced fluorescence.

On to `Cn1c(=O)n(C2CCCC2)c2nc(Nc3ccc(S(C)(=O)=O)cc3F)ncc21` [Example 3, 9-Cyclopentyl-2-{[2-fluoro-4-(methylsulfonyl)phenyl]amino}-7-methyl-7,9-dihydro-8H-purin-8-one], for which the IC50 in experiment [1] came to 2.3 µM; in experiment [2] it was 0.131 µM.
With `CN1CCN(S(=O)(=O)c2ccc(Nc3ncc4c(n3)n(C3CCCC3)c(=O)n4C)cc2)CC1` [Example 13, 9-Cyclopentyl-7-methyl-2-({4-[(4-methylpiperazin-1-yl)-sulfonyl]-phenyl}amino)-7,9-dihydro-8H-purin-8-one], the IC50 in experiment [1] turned out to be 3.7 µM; in experiment [2], 0.626 µM.
